Experimental data reported in patent US9249128B2 (priority 2010, dated 2016).

Columns and labels:
KIAA1363 [1] = molecular target: T1, KIAA1363 (Homo sapiens, UniProt Q6PIU2); experiment: Inhibition of FP-rhodamine labeling of KIAA1363 by JW551 (FIG. 17); format: biochemical; conditions: selective over other serine hydrolase enzymes
T1 sequence (Q6PIU2 1-408): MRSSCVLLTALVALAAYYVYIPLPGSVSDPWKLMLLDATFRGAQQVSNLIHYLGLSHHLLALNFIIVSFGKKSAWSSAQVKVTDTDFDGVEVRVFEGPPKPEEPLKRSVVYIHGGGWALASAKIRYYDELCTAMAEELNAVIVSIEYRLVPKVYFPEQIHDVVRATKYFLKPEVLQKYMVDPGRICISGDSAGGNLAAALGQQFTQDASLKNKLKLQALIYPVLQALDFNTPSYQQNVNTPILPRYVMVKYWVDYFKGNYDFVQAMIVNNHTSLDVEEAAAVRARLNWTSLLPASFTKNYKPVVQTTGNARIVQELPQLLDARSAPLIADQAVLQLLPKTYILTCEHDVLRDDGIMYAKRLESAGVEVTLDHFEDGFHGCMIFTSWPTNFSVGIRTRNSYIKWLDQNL

KIAA1363 [2] = molecular target: T2, KIAA1363 (Mus musculus, UniProt Q8BLF1); experiment: In vivo labeling of KIAA1363 by JW576 in mouse heart (gel-based ABPP)
T2 construct: ABPP analysis of KIAA1363 activity in mouse brain membrane proteome; from tissue; host or cells: mouse brain (membrane fraction)
T2 sequence (Q8BLF1 1-408): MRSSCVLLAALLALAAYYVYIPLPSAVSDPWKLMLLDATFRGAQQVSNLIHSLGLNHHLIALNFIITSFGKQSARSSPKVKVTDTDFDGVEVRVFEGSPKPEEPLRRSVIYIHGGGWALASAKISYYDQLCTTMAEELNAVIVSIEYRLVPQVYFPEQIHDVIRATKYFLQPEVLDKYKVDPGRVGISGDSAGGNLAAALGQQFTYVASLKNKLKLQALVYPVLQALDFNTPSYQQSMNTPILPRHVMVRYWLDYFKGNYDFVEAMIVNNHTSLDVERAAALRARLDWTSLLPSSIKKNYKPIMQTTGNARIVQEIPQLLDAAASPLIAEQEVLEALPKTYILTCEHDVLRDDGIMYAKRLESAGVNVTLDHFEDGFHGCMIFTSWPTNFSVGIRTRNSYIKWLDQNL
Procedure: (§1) For ABPP experiments, cell lysate and tissue proteomes were treated with 1 μM FP-rhodamine for 30 min at room temperature ([…]). Reactions were quenched with one volume of standard 4×SDS/PAGE loading buffer (reducing), separated by SDS/PAGE (10% acrylamide), and visualized in-gel with a Hitachi FMBio IIe flatbed fluorescence scanner (MiraiBio). For experiments involving a preincubation with JW576 in the presence or absence of the non-fluorescent competitor JW480, the reactions were prepared without FP-rhodamine. JW576 were added at the indicated concentration and incubated for the indicated time at 37° C. FP-rhodamine was then added and the reaction was carried out exactly as described above.
Tissues were dounce-homogenized in PBS, pH 7.5, followed by a low-speed spin (1,400 g, 5 min) to remove debris. The supernatant was then subjected to centrifugation (64,000 g, 45 min) to provide the cytosolic fraction in the supernatant and the membrane fraction as a pellet. The pellet was washed and resuspended in PBS buffer by sonication. Total protein concentration in each fraction was determined using a protein assay kit (Bio-Rad). Samples were stored at −80° C. until use.
JW576 was prepared as a homogenoeus PEG solution by vortexing, sonicating, and gently heating neat compound directly into PEG300 (Fluka) (4 mg ml^−1 final concentration. Male C57BI/6J (<6 months old, 20-28 g) and Male KIAA1363-KO mice were treated with JW576 or a PEG vehicle by intraperitoneal injection. After the indicated amount of time, mice were anesthetized with isoflurane and killed by decapitation. Tissues were removed, flash frozen in liquid N2 and stored at −80° C. prior to processing for ABPP gel analysis as indicated above. Animal experiments were conducted in accordance with the guidelines of the institutional Animal Care and Use Committee of The Scripps Research Institute.

KIAA1363 [3] = molecular target: T1, KIAA1363; experiment: Gel-based competitive ABPP of living PC3 cells, in situ treatment; format: cell-based; design: PC3 cancer cells, which have high endogenous KIAA1363 levels; endogenous in cells; host or cells: PC3
Procedure: Inhibitors were dissolved in DMSO and diluted into media or buffer prior to cell or proteome treatment, respectively. For in vitro treatment, final DMSO concentration was 4%. For in situ treatments of cells for ABPP, lipid measurements, migration, cell-survival, and invasion assays, 2×10^6 cells were seeded in 6 cm dishes (˜100% confluency) 24 h prior to inhibitor pre-treatment (in DMSO at 0.1% final concentration) in serum-free media (3 mL) for the designated time before harvesting cells for ABPP or lipid measurements or before the initiation of migration, cell-survival, and invasion assays.
For ABPP experiments, cell lysate and tissue proteomes were treated with 1 μM FP-rhodamine for 30 min at room temperature (50 μL total reaction volume) as described previously (Nomura et al., 2010). Reactions were quenched with one volume of standard 4×SDS/PAGE loading buffer (reducing), separated by SDS/PAGE (10% acrylamide), and visualized in-gel with a Hitachi FMBio IIe flatbed fluorescence scanner (MiraiBio). Inhibitors were preincubated prior (30 min or 4 h at 37° C. in vitro or in situ, respectively) to the addition of FP-rhodamine.
JW576 was dissolved in DMSO and diluted into media or buffer prior to cell or proteome treatment, respectively. For in vitro treatment, final DMSO concentration was 4%. For in situ treatments of cells for ABPP, 2×10^6 cells were seeded in 6 cm dishes (100% confluency) 24 hr prior to JW576 pretreatment with or without JW480 (in DMSO at 0.1% final concentration) in serum-free media (3 ml) for the designated time before harvesting cells for ABPP.
as §1

KIAA1363 [4] = molecular target: T1, KIAA1363; experiment: 2-acetyl MAGE hydrolytic activity assay in cancer cells treated in situ; format: cell-based; design: PC3 cancer cells, which have high endogenous KIAA1363 levels; endogenous in cells; host or cells: PC3 (2-acetyl MAGE assay also DU145 and SKOV3)
Procedure: Cells were pretreated with KIAA1363 inhibitors in situ (for 4 hr in serum-free F-12K media before harvesting cells by scraping) or in vitro (for 30 min at 37° C. in PBS) before addition of 2-acetyl MAGE (100 μM) to cell lysates at room temperature for 30 min in a volume of 200 μL. Reactions were quenched with 600 μL 2:1 chloroform:methanol and 10 nmol of C12:0 MAGE internal standard was added. The organic layer was extracted and 30 μL injected into an Agilent 1100-MSD LC-MS. LC-MS settings were as previously described (Chiang et al., 2006). Product levels (C16:0 MAGE) were quantified in relation to the internal standard. Specific activity was determined during the linear phase of enzymatic reactions (i.e., less than 20% substrate utilized).
Cell lysates (20 μg) in Tris buffer were then incubated with lipid (100 mM, e.g., 2-acetyl MAGE for KIAA1363 activity) at room temperature for 30 min in a volume of 200 ml. Reactions were quenched with 600 ml 2:1 chloroform:methanol and 10 nmol of C12:0 MAGE internal standard was added. […] Product levels (C16:0 MAGE for KIAA1363 activity) were quantified in relation to internal standard levels and standard curves generated between varying lipid concentration versus constant internal standard levels. Specific activity was determined during the linear phase of enzymatic reactions (i.e., less than 20% substrate utilized)

Structure (SMILES) | IC50 for inhibition of FP-rhodamine labeling of KIAA1363 (KIAA1363 [1]) | Labeling of KIAA1363 in heart (KIAA1363 [2]; C57BI/6J mice, 5-40 mg/kg, i.p., 4 hr) | Time to near-maximal in vivo labeling signals (KIAA1363 [2]; JW576 10 mg/kg, post-dosing) [min] | KIAA1363 activity in heart by competitive ABPP with FP-Rh (KIAA1363 [2]; WT mice, JW576 10 mg/kg, 1 hr) | Selectivity for KIAA1363 in vivo (heart proteome) (KIAA1363 [2]; additional 70 kDa protein, likely ES1) | IC50 (KIAA1363 [3]) [nM] | Time to near-complete target modification (KIAA1363 [3]; JW576 1 μM, living PC3 cells) | Concentration at which other JW576-protein adducts were observed (trace levels) (KIAA1363 [3]; PC3 cells in situ, BODIPY fluorescence scan) [µM] | IC50 (KIAA1363 [4]) [nM]
CC(C)c1ccccc1OC(=O)NCCOc1ccc2c(C(F)(F)F)cc(=O)oc2c1 [JW551, 2-isopropylphenyl (2-((2-oxo-4-(trifluoromethyl)-2H-chromen-7-yl)oxy)ethyl)carbamate] | low micromolar |  |  |  |  |  |  |  | 
CC1=CC(C)=[N+]2C1=Cc1ccc(CCC(=O)NCCNC(=O)Oc3ccccc3C(C)C)n1[B-]2(F)F [JW576, 5,5-difluoro-7-(3-((2-(((2-isopropylphenoxy)carbonyl)amino)ethyl)amino)-3-oxopropyl)-1,3-dimethyl-5H-dipyrrolo[1,2-c:2′,1′-f][1,3,2]diazaborinin-4-ium-5-uide] |  | significant labeling | ≤ 30 | substantial reductions | only a single, faint additional probe target | 340 ± 150 | within an hour | ≥ 5 | 150 to 170
